Test results taken from patent publication US4154839A, “2,6-Dimethyl -3-carboxymethoxy-4-(2-nitrophenyl)-5-carbisobutoxy-1,4-dihydropyridine” (priority 1975, dated 1979).

What was measured:
heart muscle = experiment: myocardial (heart) perfusion in canines, electromagnetic flow meter, sublingual administration; type: in vivo; settings: for % Increase in Heart Perfusion / Half-life duration (of heart perfusion increase): canines
Source text: The ability of the compound to assist in the perfusion action of the heart muscle can be conveniently observed in recognized pharmacological models. For example, the myocardial perfusion in canines can be observed utilizing an electromagnetic flow meter. Upon sublingual administration to canines, the following pharmacological manifestations are, for example, observed.

[1] = blood pressure decrease in canines upon sublingual administration; type: in vivo; settings: for Blood Pressure Decrease (%): canines
stability towards light = type: physicochemical; settings: compared with previously known 1,4-dihydropyridines
coronary perfusion = experiment: coronary activity / effect on coronary perfusion (general statement); type: in vivo

## COC(=O)C1=C(C)NC(C)=C(C(=O)OCC(C)C)C1c1ccccc1[N+](=O)[O-] (stereo not shown) [the compound, isobutyl methyl 1,4-dihydro-2,6-dimethyl-4-(2-nitrophenyl)-3,5-pyridinedicarboxylate]
Heart muscle; 0.003 mg/kg sublingual
  % Increase in Heart Perfusion: 23%
  Half-life duration (of heart perfusion increase): 1.67 h
Heart muscle; 0.01 mg/kg sublingual
  % Increase in Heart Perfusion: 46%
  Half-life duration (of heart perfusion increase): 2.22 h
Heart muscle; 0.1 mg/kg sublingual
  % Increase in Heart Perfusion: 142%
  Half-life duration (of heart perfusion increase): 3.07 h
Heart muscle; sublingual administration
  increase of perfusion of the heart muscle, dose dependence (in words): increases the perfusion of the heart muscle and that this action is a function of dose
  onset of action after sublingual administration: a few minutes after sublingual administration
Heart muscle; sublingual administration, depending upon the dose
  total duration of action on heart muscle perfusion: 2 to 6 h
[1]; 0.003 mg/kg sublingual
  Blood Pressure Decrease (%): .phi.
[1]; 0.01 mg/kg sublingual
  Blood Pressure Decrease (%): 5%
[1]; 0.1 mg/kg sublingual
  Blood Pressure Decrease (%): 13%
[1]; sublingual administration
  lowering of blood pressure (in words): slight and equally long lasting lowering of blood pressure
Stability towards light
  stability towards light: considerably greater stability towards light than previously known 1,4-dihydropyridines
Coronary perfusion; compared with any 1,4-dihydropyridine presently known
  coronary activity, magnitude and length of action: significantly greater than any 1,4-dihydropyridine presently known
Coronary perfusion; in vivo
  effect on coronary perfusion (in words): powerful and long acting effect on coronary perfusion
